Drawing on ChEMBL document CHEMBL2074162, “P-glycoprotein-mediated transcellular transport of MDR-reversing agents” (FEBS Lett, 1993), this text covers Activity for 2 compounds.

The target in this series is ATP-dependent translocase ABCB1 (Homo sapiens, UniProt P08183). The series can be described thus: TP_TRANSPORTER: transepithelial transport (basal to apical) in MDR1-expressing LLC-PK1 cells. It is filed as functional, cell-based. The following applies: pig.
Chain of ATP-dependent translocase ABCB1 (P08183 whole entry): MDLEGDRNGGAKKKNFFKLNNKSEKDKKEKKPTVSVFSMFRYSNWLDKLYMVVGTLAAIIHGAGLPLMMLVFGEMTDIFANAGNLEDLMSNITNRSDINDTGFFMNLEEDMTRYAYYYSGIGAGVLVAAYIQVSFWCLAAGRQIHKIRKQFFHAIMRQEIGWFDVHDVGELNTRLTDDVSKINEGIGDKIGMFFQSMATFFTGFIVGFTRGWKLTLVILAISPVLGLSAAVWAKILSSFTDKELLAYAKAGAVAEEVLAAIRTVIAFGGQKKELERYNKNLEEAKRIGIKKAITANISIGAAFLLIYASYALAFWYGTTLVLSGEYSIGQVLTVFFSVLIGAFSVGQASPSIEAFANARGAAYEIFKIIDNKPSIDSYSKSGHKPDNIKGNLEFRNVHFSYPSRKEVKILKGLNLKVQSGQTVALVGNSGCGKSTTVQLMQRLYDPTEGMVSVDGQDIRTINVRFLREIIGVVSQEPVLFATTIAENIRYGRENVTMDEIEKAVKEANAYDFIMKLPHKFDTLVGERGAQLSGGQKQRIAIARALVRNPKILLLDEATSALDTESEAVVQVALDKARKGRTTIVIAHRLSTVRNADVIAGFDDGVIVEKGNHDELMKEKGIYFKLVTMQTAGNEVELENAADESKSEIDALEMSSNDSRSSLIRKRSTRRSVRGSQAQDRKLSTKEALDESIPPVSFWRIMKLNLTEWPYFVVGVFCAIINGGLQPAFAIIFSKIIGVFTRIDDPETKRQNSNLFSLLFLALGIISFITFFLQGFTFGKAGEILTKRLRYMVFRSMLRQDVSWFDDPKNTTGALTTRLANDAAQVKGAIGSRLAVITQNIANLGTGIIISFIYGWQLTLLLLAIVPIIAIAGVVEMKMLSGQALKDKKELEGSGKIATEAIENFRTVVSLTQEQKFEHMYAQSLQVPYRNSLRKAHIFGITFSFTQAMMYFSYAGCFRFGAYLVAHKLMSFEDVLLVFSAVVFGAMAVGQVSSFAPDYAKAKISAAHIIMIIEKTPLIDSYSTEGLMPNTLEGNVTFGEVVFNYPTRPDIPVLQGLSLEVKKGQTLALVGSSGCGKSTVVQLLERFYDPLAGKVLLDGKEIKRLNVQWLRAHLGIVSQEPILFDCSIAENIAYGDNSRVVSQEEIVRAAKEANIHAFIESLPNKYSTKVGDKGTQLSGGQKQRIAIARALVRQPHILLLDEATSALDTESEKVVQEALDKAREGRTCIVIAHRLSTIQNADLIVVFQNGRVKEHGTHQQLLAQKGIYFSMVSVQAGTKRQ

Take `CCOC(=O)C1=C(C)NC(C)=C(C(=O)OCCNC(=O)c2ccc(N=[N+]=[N-])cc2)C1c1ccccc1C(F)(F)F` (configuration not stated) [AZIDOPINE]: the Activity entry was “substrate [+]”.

Consider `COc1ccc([C@@H]2Sc3ccccc3N(CCN(C)C)C(=O)[C@@H]2OC(C)=O)cc1` [DILTIAZEM], for which the Activity entry is “substrate [+]”.
